Measured values taken from patent US8076487B2, “Pyridone derivative and herbicide” (Kumiai Chemical Industry Co., Ltd., priority 2006, dated 2011).

What was measured:
Assay type in all cases: in vivo
[1] = test system: heartshape false pickerelweed (Monochoria vaginalis (Burm.f.) C.Presl); test: Test Example 1: herbicidal effect by soil application to paddy field; details: paddy field soil application; active ingredient 1,000 g per 1 hectare; wettable powder added dropwise to water surface the day after sowing; examined on the 21st day after application
How it was run: (§1)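 Plants were sown in flooded (3 cm) paddy soil and evaluated for herbicidal effect 21 days after soil application in a greenhouse.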

[2] = test system: early watergrass (Echinochloa oryzicola Vasing); test: as above; details: paddy field soil application; active ingredient 1,000 g per 1 hectare; wettable powder added dropwise to water surface the day after sowing; examined on the 21st day after application
How it was run: as §1

[3] = test system: Japanese bulrush (Scirpus juncoides Roxb.); test: as above; details: paddy field soil application; active ingredient 1,000 g per 1 hectare; wettable powder added dropwise to water surface the day after sowing; examined on the 21st day after application
How it was run: as §1

[4] = test system: velvetleaf (Abutilon theophrasti medicus); test: Test Example 3: herbicidal effect by application to upland field (foliage treatment); details: foliage treatment, 1,000 g active ingredient per 1 hectare, 14th day after application, greenhouse
How it was run: (§2)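 Greenhouse-grown plants, two weeks old in field soil, were treated by spraying their foliage with a water dilution of wettable powder. Rate: 1,000 g active ingredient in a 1,000 L/ha equivalent volume. Assessment followed at 14 days.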

[5] = test system: barnyardgrass (Echinochloa crus-galli (L.) P. Beauv. var. crus-galli); test: as above; details: foliage treatment, 1,000 g active ingredient per 1 hectare, 14th day after application, greenhouse
How it was run: as §2

[6] = test system: green foxtail (Setaria viridis (L.) P. Beauv.); test: as above; details: foliage treatment, 1,000 g active ingredient per 1 hectare, 14th day after application, greenhouse
How it was run: as §2

[7] = test system: slender amaranth (Amaranthus viridis L.); test: as above; details: foliage treatment, 1,000 g active ingredient per 1 hectare, 14th day after application, greenhouse
How it was run: as §2

[8] = test system: velvetleaf (Abutilon theophrasti medicus); test: Test Example 2: herbicidal effect by soil application to upland field; details: soil surface spray, upland field soil, 1,000 g active ingredient per hectare, 21st day after application
How it was run: (§3)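 Pots of field soil, seeds sown and soil-covered; wettable powder diluted in water sprayed on soil at 1,000 g a.i./ha (1,000 L/ha). Greenhouse-grown; herbicidal effect rated per standard at 21 days post-application.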

[9] = test system: barnyardgrass (Echinochloa crus-galli (L.) P. Beauv. var. crus-galli); test: as above; details: soil surface spray, upland field soil, 1,000 g active ingredient per hectare, 21st day after application
How it was run: as §3

[10] = test system: green foxtail (Setaria viridis (L.) P. Beauv.); test: as above; details: soil surface spray, upland field soil, 1,000 g active ingredient per hectare, 21st day after application
How it was run: as §3

[11] = test system: slender amaranth (Amaranthus viridis L.); test: as above; details: soil surface spray, upland field soil, 1,000 g active ingredient per hectare, 21st day after application
How it was run: as §3

For `N#Cc1ccc(Cn2c(C(F)(F)F)ccc(C(=O)C3=C(O)CCCC3=O)c2=O)cc1` [I-119], the “herbicidal effect, Monochoria vaginalis (Burm. f.) C. Presl” value (“herbicidal effect, Monochoria vaginalis” for short) [1] was 5 (90% or more of herbicidal effect and crop phytotoxicity), the “herbicidal effect, Echinochloa oryzicola Vasing” value [2] was 5 (90% or more of herbicidal effect and crop phytotoxicity) and the “herbicidal effect, Scirpus juncoides Roxb.” value [3] was 5 (90% or more of herbicidal effect and crop phytotoxicity). The “herbicidal effect, Velvetleaf” value [4] was 5 (90% or more of herbicidal effect and crop phytotoxicity), the “herbicidal effect, Barnyardgrass” value [5] was 5 (90% or more of herbicidal effect and crop phytotoxicity) and the “herbicidal effect, Green Foxtail” value [6] was 5 (90% or more of herbicidal effect and crop phytotoxicity). The “herbicidal effect, Slender Amaranth” value [7] was 5 (90% or more of herbicidal effect and crop phytotoxicity), the “herbicidal effect (index), Velvetleaf” value [8] was 5 (90% or more of herbicidal effect and crop phytotoxicity) and the “herbicidal effect (index), Barnyardgrass” value [9] was 5 (90% or more of herbicidal effect and crop phytotoxicity). For the same compound, the “herbicidal effect (index), Green Foxtail” value [10] was 5 (90% or more of herbicidal effect and crop phytotoxicity) and the “herbicidal effect (index), Slender Amaranth” value [11] was 5 (90% or more of herbicidal effect and crop phytotoxicity).

In the case of `CC1=NOC(Cn2c(C(F)(F)F)ccc(C(=O)C3=C(O)CCCC3=O)c2=O)C1` (stereo not shown) [I-126], the “herbicidal effect, Monochoria vaginalis” value [1] was 5 (90% or more of herbicidal effect and crop phytotoxicity), the “herbicidal effect, Echinochloa oryzicola Vasing” value [2] was 5 (90% or more of herbicidal effect and crop phytotoxicity) and the “herbicidal effect, Scirpus juncoides Roxb.” value [3] was 5 (90% or more of herbicidal effect and crop phytotoxicity). For the same compound, the “herbicidal effect, Velvetleaf” value [4] was 5 (90% or more of herbicidal effect and crop phytotoxicity), the “herbicidal effect, Barnyardgrass” value [5] was 5 (90% or more of herbicidal effect and crop phytotoxicity) and the “herbicidal effect, Green Foxtail” value [6] was 5 (90% or more of herbicidal effect and crop phytotoxicity). The “herbicidal effect, Slender Amaranth” value [7] was 5 (90% or more of herbicidal effect and crop phytotoxicity), the “herbicidal effect (index), Velvetleaf” value [8] was 5 (90% or more of herbicidal effect and crop phytotoxicity) and the “herbicidal effect (index), Barnyardgrass” value [9] was 5 (90% or more of herbicidal effect and crop phytotoxicity). The “herbicidal effect (index), Green Foxtail” value [10] was 5 (90% or more of herbicidal effect and crop phytotoxicity) and the “herbicidal effect (index), Slender Amaranth” value [11] was 5 (90% or more of herbicidal effect and crop phytotoxicity).

In the case of `Cc1cc(Cn2c(C(F)(F)F)ccc(C(=O)C3=C(O)CCCC3=O)c2=O)on1` [I-128], the “herbicidal effect, Monochoria vaginalis” value [1] was 5 (90% or more of herbicidal effect and crop phytotoxicity), the “herbicidal effect, Echinochloa oryzicola Vasing” value [2] was 5 (90% or more of herbicidal effect and crop phytotoxicity) and the “herbicidal effect, Scirpus juncoides Roxb.” value [3] was 5 (90% or more of herbicidal effect and crop phytotoxicity). The “herbicidal effect, Velvetleaf” value [4] was 5 (90% or more of herbicidal effect and crop phytotoxicity), the “herbicidal effect, Barnyardgrass” value [5] was 5 (90% or more of herbicidal effect and crop phytotoxicity) and the “herbicidal effect, Green Foxtail” value [6] was 4 (70 to less than 90% of herbicidal effect and crop phytotoxicity). For the same compound, the “herbicidal effect, Slender Amaranth” value [7] was 5 (90% or more of herbicidal effect and crop phytotoxicity), the “herbicidal effect (index), Velvetleaf” value [8] was 5 (90% or more of herbicidal effect and crop phytotoxicity) and the “herbicidal effect (index), Barnyardgrass” value [9] was 5 (90% or more of herbicidal effect and crop phytotoxicity). For the same compound, the “herbicidal effect (index), Green Foxtail” value [10] was 4 (70 to less than 90% of herbicidal effect and crop phytotoxicity) and the “herbicidal effect (index), Slender Amaranth” value [11] was 5 (90% or more of herbicidal effect and crop phytotoxicity).

With `O=C1CCCC(O)=C1C(=O)c1ccc(C(F)(F)F)n(CCc2ccccc2)c1=O` [I-129] the “herbicidal effect, Monochoria vaginalis” value [1] was 4 (70 to less than 90% of herbicidal effect and crop phytotoxicity), the “herbicidal effect, Echinochloa oryzicola Vasing” value [2] was 5 (90% or more of herbicidal effect and crop phytotoxicity) and the “herbicidal effect, Scirpus juncoides Roxb.” value [3] was 5 (90% or more of herbicidal effect and crop phytotoxicity). The “herbicidal effect, Velvetleaf” value [4] was 5 (90% or more of herbicidal effect and crop phytotoxicity), the “herbicidal effect, Barnyardgrass” value [5] was 5 (90% or more of herbicidal effect and crop phytotoxicity) and the “herbicidal effect, Green Foxtail” value [6] was 5 (90% or more of herbicidal effect and crop phytotoxicity). For the same compound, the “herbicidal effect, Slender Amaranth” value [7] was 5 (90% or more of herbicidal effect and crop phytotoxicity), the “herbicidal effect (index), Velvetleaf” value [8] was 5 (90% or more of herbicidal effect and crop phytotoxicity) and the “herbicidal effect (index), Barnyardgrass” value [9] was 5 (90% or more of herbicidal effect and crop phytotoxicity). For the same compound, the “herbicidal effect (index), Green Foxtail” value [10] was 4 (70 to less than 90% of herbicidal effect and crop phytotoxicity) and the “herbicidal effect (index), Slender Amaranth” value [11] was 5 (90% or more of herbicidal effect and crop phytotoxicity).

For `CON=CCn1c(C(F)(F)F)ccc(C(=O)C2=C(O)CCCC2=O)c1=O` [I-133], the “herbicidal effect, Monochoria vaginalis” value [1] was 5 (90% or more of herbicidal effect and crop phytotoxicity), the “herbicidal effect, Echinochloa oryzicola Vasing” value [2] was 5 (90% or more of herbicidal effect and crop phytotoxicity) and the “herbicidal effect, Scirpus juncoides Roxb.” value [3] was 5 (90% or more of herbicidal effect and crop phytotoxicity). The “herbicidal effect, Velvetleaf” value [4] was 5 (90% or more of herbicidal effect and crop phytotoxicity), the “herbicidal effect, Barnyardgrass” value [5] was 5 (90% or more of herbicidal effect and crop phytotoxicity) and the “herbicidal effect, Green Foxtail” value [6] was 4 (70 to less than 90% of herbicidal effect and crop phytotoxicity). For the same compound, the “herbicidal effect, Slender Amaranth” value [7] was 5 (90% or more of herbicidal effect and crop phytotoxicity), the “herbicidal effect (index), Velvetleaf” value [8] was 5 (90% or more of herbicidal effect and crop phytotoxicity) and the “herbicidal effect (index), Barnyardgrass” value [9] was 5 (90% or more of herbicidal effect and crop phytotoxicity). For the same compound, the “herbicidal effect (index), Green Foxtail” value [10] was 4 (70 to less than 90% of herbicidal effect and crop phytotoxicity) and the “herbicidal effect (index), Slender Amaranth” value [11] was 5 (90% or more of herbicidal effect and crop phytotoxicity).

For `COC(Cn1c(C(F)(F)F)ccc(C(=O)C2=C(O)CCCC2=O)c1=O)OC` [I-137], the “herbicidal effect, Monochoria vaginalis” value [1] was 5 (90% or more of herbicidal effect and crop phytotoxicity), the “herbicidal effect, Echinochloa oryzicola Vasing” value [2] was 5 (90% or more of herbicidal effect and crop phytotoxicity) and the “herbicidal effect, Scirpus juncoides Roxb.” value [3] was 5 (90% or more of herbicidal effect and crop phytotoxicity). For the same compound, the “herbicidal effect, Velvetleaf” value [4] was 5 (90% or more of herbicidal effect and crop phytotoxicity), the “herbicidal effect, Barnyardgrass” value [5] was 5 (90% or more of herbicidal effect and crop phytotoxicity) and the “herbicidal effect, Green Foxtail” value [6] was 4 (70 to less than 90% of herbicidal effect and crop phytotoxicity). For the same compound, the “herbicidal effect, Slender Amaranth” value [7] was 5 (90% or more of herbicidal effect and crop phytotoxicity), the “herbicidal effect (index), Velvetleaf” value [8] was 5 (90% or more of herbicidal effect and crop phytotoxicity) and the “herbicidal effect (index), Barnyardgrass” value [9] was 5 (90% or more of herbicidal effect and crop phytotoxicity). For the same compound, the “herbicidal effect (index), Green Foxtail” value [10] was 5 (90% or more of herbicidal effect and crop phytotoxicity) and the “herbicidal effect (index), Slender Amaranth” value [11] was 5 (90% or more of herbicidal effect and crop phytotoxicity).

`Cc1cc(-n2c(C(F)(F)F)ccc(C(=O)C3=C(O)CCCC3=O)c2=O)no1` [I-142] was tested, and the “herbicidal effect, Monochoria vaginalis” value [1] was 5 (90% or more of herbicidal effect and crop phytotoxicity), the “herbicidal effect, Echinochloa oryzicola Vasing” value [2] was 5 (90% or more of herbicidal effect and crop phytotoxicity) and the “herbicidal effect, Scirpus juncoides Roxb.” value [3] was 5 (90% or more of herbicidal effect and crop phytotoxicity). For the same compound, the “herbicidal effect, Velvetleaf” value [4] was 5 (90% or more of herbicidal effect and crop phytotoxicity), the “herbicidal effect, Barnyardgrass” value [5] was 5 (90% or more of herbicidal effect and crop phytotoxicity) and the “herbicidal effect, Green Foxtail” value [6] was 5 (90% or more of herbicidal effect and crop phytotoxicity). The “herbicidal effect, Slender Amaranth” value [7] was 5 (90% or more of herbicidal effect and crop phytotoxicity), the “herbicidal effect (index), Velvetleaf” value [8] was 5 (90% or more of herbicidal effect and crop phytotoxicity) and the “herbicidal effect (index), Barnyardgrass” value [9] was 5 (90% or more of herbicidal effect and crop phytotoxicity). The “herbicidal effect (index), Green Foxtail” value [10] was 5 (90% or more of herbicidal effect and crop phytotoxicity) and the “herbicidal effect (index), Slender Amaranth” value [11] was 5 (90% or more of herbicidal effect and crop phytotoxicity).

In the case of `O=C1CCCC(O)=C1C(=O)c1ccc(C(F)(F)F)n(-c2ccsc2)c1=O` [I-148], the “herbicidal effect, Monochoria vaginalis” value [1] was 5 (90% or more of herbicidal effect and crop phytotoxicity), the “herbicidal effect, Echinochloa oryzicola Vasing” value [2] was 5 (90% or more of herbicidal effect and crop phytotoxicity) and the “herbicidal effect, Scirpus juncoides Roxb.” value [3] was 5 (90% or more of herbicidal effect and crop phytotoxicity). The “herbicidal effect, Velvetleaf” value [4] was 5 (90% or more of herbicidal effect and crop phytotoxicity), the “herbicidal effect, Barnyardgrass” value [5] was 5 (90% or more of herbicidal effect and crop phytotoxicity) and the “herbicidal effect, Green Foxtail” value [6] was 5 (90% or more of herbicidal effect and crop phytotoxicity). For the same compound, the “herbicidal effect, Slender Amaranth” value [7] was 5 (90% or more of herbicidal effect and crop phytotoxicity), the “herbicidal effect (index), Velvetleaf” value [8] was 5 (90% or more of herbicidal effect and crop phytotoxicity) and the “herbicidal effect (index), Barnyardgrass” value [9] was 5 (90% or more of herbicidal effect and crop phytotoxicity). The “herbicidal effect (index), Green Foxtail” value [10] was 5 (90% or more of herbicidal effect and crop phytotoxicity) and the “herbicidal effect (index), Slender Amaranth” value [11] was 5 (90% or more of herbicidal effect and crop phytotoxicity).
